Results published in patent US20210220331A1, “INHIBITORS OF IRES-MEDIATED PROTEIN SYNTHESIS” (The Regents of the University of California, priority 2016, published 2021).

What was measured:
human cyclin D1 IRES [1] = assay: Dicistronic IRES mRNA reporter assay (firefly luciferase), cyclin D1 IRES; assay type: cell-based; details: 293T cells, 50 nM, 24 h
[2] = biological target: T1, UP1 fragment of hnRNP A1 / cyclin D1 or c-MYC IRES RNAs (Homo sapiens, UniProt P09651); assay: Filter binding assay of GST-tagged hnRNP A1 mutants with IRES RNAs; details: for association of UP1 fragment (a.a. 1-196) with cyclin D1 or c-MYC IRESs: GST-tagged protein
T1 construct: The UP1 fragment (a.a. 1-196) containing RRM1 and RRM2; made in house; host or cells: HEK293 cells
Method: Filter binding assays were performed as previously described (18,23). GSTtagged hnRNP A1 or hnRNP A1 deletion mutants were added to in vitro transcribed 32Plabeled RNAs corresponding to either the cyclin D1 or c-MYC IRESs in separate reactions in a volume of 10 μl in buffer containing 5 mM HEPES (pH 7.6), 30 mM KCl, 2 mM MgCl2, 200 mM DTT, 4% glycerol and 10 ng yeast tRNA for 10 min at room temperature. 8 μl of each binding reaction was applied to nitrocellulose membranes on a slot blot apparatus (Minifold II, Schleicher & Schuell). Membranes were washed and dried, and signals quantified using a phosphorimager.
To begin to investigate the mechanism of action of C11 and IRES-J007, it was initially determined whether the UP1 fragment of hnRNP A1 was sufficient to recapitulate C11 or IRESJ007-mediated inhibition of IRES binding to this ITAF. The relative association between the mutant proteins and either the cyclin D1 or c-MYC IRESs was determined by filter binding assays in the absence or presence of the inhibitors (FIG. 4B). […] Additionally, a mutant encompassing residues 103-372, containing RRM2 bound both IRES sequences and binding was reduced in the presence of either of the inhibitors. […] The presence of RRM2 is necessary and appears to cooperate with RRM1 to mediate IRES binding that is sensitive to C11 or IRES-J007. Finally, UP1 is capable of IRES binding that is blocked by either C11 or the analog IRES-J007.
Mutant 1-196 constitutes the Up1 fragment of full-length human hnRNP A1. In the Δ130-158 mutant, the sequences encompassing RRM2 have been removed. (B) Binding of either cyclin D1 (top panel) or c-MYC (bottom panel) IRES RNAs to GST-tagged hnRNP A1 mutants in the absence or presence of C11 or IRES-J007 as assayed by filter binding. The mean and +SD are shown for three independent experiments.

human cyclin D1 IRES [3] = assay: Dicistronic IRES mRNA reporter assay (firefly luciferase), cyclin D1 IRES; assay type: cell-based; details: for Cyclin D1 (decrease): fold decrease in PP242-induced cyclin D1 IRES activity: LN229, relative to values obtained with parent compound C11
Method: Western blot and quantitative RT-PCR analyses were performed as previously described (19). For Western blotting, cells or tissues were lysed in RIPA (lysis) buffer containing protease inhibitor cocktail and phosSTOP phosphatase inhibitor cocktail (Roche) and extracts resolved by SDSPAGE. Proteins were transferred to PVDF membranes and incubated with the indicated antibodies. For IRES reporter assays, the indicated mRNA reporters were cotransfected into cells with pSVβ-galactosidase to normalize for transfection efficiency as described previously (16). Cells were harvested 18 h following transfection and Renilla, firefly and β-galactosidase activities determined using the Dual-Glo Luciferase and β-galactosidase assay systems (Promega).
(B) Schematic diagrams of the dicistronic constructs used in this study. Constructs used are pRF, pRCD1F, which contains the human cyclin D1 IRES, pRmycF, containing the human c-myc IRES, pRp27F, containing the human p27Kip1 IRES and pRECMVF, containing the IRES from encephalomyocarditis virus. (C) Relative Renilla and firefly luciferase activities obtained from LN229 GBM cells transfected with the indicated constructs in the absence or presence of the inhibitor C11. The mean and +SD are shown for three independent experiments. […] (D) RNA-pull down assays utilizing biotinylated cyclin D1 or c-MYC IRES RNAs. Cytoplasmic extracts of LN229 cells treated with C11 (50 nM) as indicated were incubated with biotinylated cyclin D1 or c-MYC IRES RNAs and precipitated with streptavidin-Sepharose beads. Input and bound fractions were analyzed by immunoblotting using hnRNP A1 antibodies. […] RT-PCR measurements were performed in quadruplicate and the mean and +S.D. are shown. […] (F) Top panel, LN229 cells were treated with C11 as indicated and RT-PCR splicing analysis for Max exon 5 performed as described in the Experimental Methods section. Middle panel, LN229 cells treated with C11 (50 nM) as indicated, were lysed and immunoprecipitated using either eIF-4E or control IgG antibodies. Bound CCND1 or c-MYC RNAs were detected via RT-PCR. The mean and +S.D. are shown for three independent experiments. Bottom panel, cyclin D1 and c-MYC protein levels from the indicated GBM cell lines in the absence or presence of C11 at 24 h following treatment. C11 specifically blocks c-Myc IRES-mediated translation initiation by disrupting the ITAF hnRNP A1-IRES interaction.
Several dicistronic IRES mRNA reporter constructs were utilized, shown in FIG. 1B, in which the indicated IRES sequences were inserted within the intercistronic region. LN229 cells transiently transfected with these constructs were assayed for Renilla and firefly luciferase activities, which are readouts of cap-dependent and IRES-mediated translation initiation, respectively (16). […]

T1 sequence (P09651 1-196): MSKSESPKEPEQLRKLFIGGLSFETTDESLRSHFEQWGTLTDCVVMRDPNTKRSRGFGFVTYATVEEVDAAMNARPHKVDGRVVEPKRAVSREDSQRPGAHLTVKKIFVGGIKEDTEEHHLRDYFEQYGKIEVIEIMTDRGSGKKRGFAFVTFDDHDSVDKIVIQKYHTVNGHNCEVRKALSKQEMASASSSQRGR

Structure (SMILES)	basal cyclin D1 IRES activity (human cyclin D1 IRES [1])	association of UP1 fragment (a.a. 1-196) with cyclin D1 or c-MYC IRESs [2]	Cyclin D1 (decrease): fold decrease in PP242-induced cyclin D1 IRES activity (human cyclin D1 IRES [3]) [fold]	mTOR inhibitor-induced cyclin D1 IRES activity (human cyclin D1 IRES [3]; LN229 cells, cotreatment with rapamycin or PP242)	cyclin D1 IRES activity (human cyclin D1 IRES [3]; LN229 cells, inhibitor alone)	ability to block UP1/IRES RNA interactions compared to C11 [2]
COc1ccc(CN2C(=O)C(Cl)=C(Cl)C2=O)c(OC)c1 [Compound C11, reference compound]	reduced IRES activity	blocked association	1.0	significantly inhibited	significantly inhibited	–
COc1ccc(CN2C(=O)c3ccccc3C2=O)c(OC)c1 [IRES-J007, 2-((2,4-Dimethoxyphenyl)methyl)isoindoline-1,3-dione]	reduced IRES activity	blocked association	4.97 ± 0.13	–	–	modest, yet significant increase
